Source: patent US20240218022A1, “ANTI-VISTA MACROCYCLIC PEPTIDES AND COMPOSITIONS” (BRISTOL-MYERS SQUIBB COMPANY, priority 2022, published 2024)
Like-named read-outs stand apart in the source and are kept apart here. Starred links: 1 amine or outer side, 2 acyl side, 3 side chain; linkers in the order of their positions; H or OH if unused. Positions of bridges follow the written chain, without caps; N, C: chain ends. Non-standard residues stand in square brackets, D forms with d. Residues, ends and D or L forms follow the SMILES beside them. Phe(3-F) = N[C@@H](Cc1cccc(F)c1)C(=O)O; Phe(3-Me) = Cc1cccc(C[C@H](N)C(=O)O)c1; γGlu = O=C(O)[C@H](CCC(=O)[*:2])N[*:1]; 2Nal = N[C@@H](Cc1ccc2ccccc2c1)C(=O)O; βAsp = O=C(O)[C@H](CC(=O)[*:2])N[*:1]; Aad = N[C@@H](CCCC(=O)O)C(=O)O; Gly(cPr) = N[C@H](C(=O)O)C1CC1; NMeL = CN[C@@H](CC(C)C)C(=O)O; Ahp(2) = CCCCC[C@H](N)C(=O)O; NMeNle = CCCC[C@H](NC)C(=O)O; Tle = CC(C)(C)[C@H](N)C(=O)O; Pip = O=C(O)[C@@H]1CCCCN1; NHexGly = CCCCCCNCC(=O)O; Nle = CCCC[C@H](N)C(=O)O; Orn = NCCC[C@H](N)C(=O)O; Aun = NCCCCCCCCCCC(=O)O; AEEA = NCCOCCOCC(=O)O

Target: T1, mouse VISTA (mVISTA) (Mus musculus, UniProt Q9D659)
T1 construct: expressed in transfected cells; host or cells: Human embryonic kidney 293T cells
T1 sequence (Q9D659 33-308): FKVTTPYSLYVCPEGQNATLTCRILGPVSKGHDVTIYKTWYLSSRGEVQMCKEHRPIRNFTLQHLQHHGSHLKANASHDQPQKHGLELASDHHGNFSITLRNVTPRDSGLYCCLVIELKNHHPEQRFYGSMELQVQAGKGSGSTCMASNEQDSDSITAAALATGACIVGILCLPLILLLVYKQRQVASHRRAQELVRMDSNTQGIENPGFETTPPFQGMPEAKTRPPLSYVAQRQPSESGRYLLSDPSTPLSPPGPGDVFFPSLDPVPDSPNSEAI
Test: Cell-Based Binding High-Content Assay For mVISTA (HC CBA mVISTA)
In short: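 293T cells expressing mouse VISTA, with compounds added either after seeding ("no wash") or before seeding and then washed out after 1 h. Biotinylated peptide 2 nM for 30 min at room temperature, then detection with Alexa 647–streptavidin. After fixation with Hoechst stain, plates were high-content imaged; IC50 from four-parameter logistic fit.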

[1] = 293T cells expressing mouse VISTA, competition with biotinylated peptide (2 nM), read-out: HC CBA mVISTA IC50

IC50 (read-out: HC CBA mVISTA IC50) [nM] | SMILES | also measured
 | CCCCCCN1CC(=O)N[C@@H](Cc2ccc(O)cc2)C(=O)N[C@@H](CCCC(=O)O)C(=O)N[C@@H](CC(N)=O)C(=O)N[C@@H](CCCN)C(=O)N(C)[C@@H](CCCC)C(=O)N[C@@H](CCCCC)C(=O)N2CCC[C@H]2C(=O)N[C@@H](C(C)(C)C)C(=O)N[C@@H](CO)C(=O)N[C@H](C(=O)N[C@@H](CC(=O)NCCOCCOCC(=O)N[C@@H](CC(=O)O)C(=O)NCCOCCOCC(=O)NCCCCCCCCCCC(=O)O)C(=O)O)CSCC(=O)N[C@@H](Cc2ccccc2)C(=O)N[C@@H](Cc2ccc(O)cc2)C(=O)N[C@@H](CC(=O)O)C1=O [compound 2056] ({CH2CO}-FYD[NHexGly]Y[Aad]N[Orn][NMeNle][Ahp(2)]P[Tle]SC[βAsp][AEEA]D[AEEA][Aun]-OH; thioether N-14) | IC50 (cell-based binding high-content assay, mVISTA, read-out: HC CBA miPr ISTA IC50): 26.1 nM
34.4 | CCCCCCN1CC(=O)N[C@@H](Cc2ccc(O)cc2)C(=O)N[C@@H](CCCC)C(=O)N[C@@H](CC(N)=O)C(=O)N[C@@H](CCCNC(=N)N)C(=O)N(C)[C@@H](CCCC)C(=O)N[C@@H](CCCCC)C(=O)N2CCC[C@H]2C(=O)N[C@@H](C2CC2)C(=O)N[C@@H](CO)C(=O)N[C@H](C(=O)NCC(N)=O)CSCC(=O)N[C@@H](Cc2ccccc2)C(=O)N[C@@H](Cc2c[nH]c3ccccc23)C(=O)N[C@@H](CC(=O)O)C1=O [Example 1389] ({CH2CO}-FWD[NHexGly]Y[Nle]NR[NMeNle][Ahp(2)]P[Gly(cPr)]SCG-NH2; thioether N-14) | 
 | CCCCCCN1CC(=O)N[C@@H](Cc2ccc(O)cc2)C(=O)N[C@@H](CCCC)C(=O)NCC(=O)N[C@@H](CCCNC(=N)N)C(=O)N[C@@H](CC(C)C)C(=O)N[C@@H](CCCCC)C(=O)N2CCC[C@H]2C(=O)N[C@@H](C(C)C)C(=O)N[C@@H](CC(N)=O)C(=O)N[C@H](C(=O)NCC(=O)O)CSCC(=O)N[C@@H](Cc2ccccc2)C(=O)N[C@@H](Cc2ccc(O)cc2)C(=O)N[C@@H](CC(=O)O)C1=O [Example 1028] ({CH2CO}-FYD[NHexGly]Y[Nle]GRL[Ahp(2)]PVNCG-OH; thioether N-14) | IC50 [1]: 5.2 nM
28.9 | CCCCCCN1CC(=O)N[C@@H](Cc2ccc(O)cc2)C(=O)N[C@@H](CC(C)C)C(=O)N[C@@H](CC(N)=O)C(=O)N[C@@H](CCCNC(=N)N)C(=O)N(C)[C@@H](CC(C)C)C(=O)N[C@@H](CCCCC)C(=O)N2CCC[C@H]2C(=O)N[C@@H](C(C)(C)C)C(=O)N[C@@H](CC(=O)O)C(=O)N[C@H](C(=O)NCCOCCOCC(=O)N[C@@H](CCC(=O)NCCOCCOCC(=O)NCCCCCCCCCCC(=O)O)C(=O)O)CSCC(=O)N[C@@H](Cc2ccccc2)C(=O)N[C@@H](Cc2ccc(O)cc2)C(=O)N[C@@H](CC(=O)O)C1=O [compound 2267] ({CH2CO}-FYD[NHexGly]YLNR[NMeL][Ahp(2)]P[Tle]DC[AEEA][γGlu][AEEA][Aun]-OH; thioether N-14) | 
32.6 | CCCCCCN1CC(=O)N[C@@H](Cc2ccc(O)cc2)C(=O)N[C@@H](CCCC)C(=O)N[C@@H](CC(N)=O)C(=O)N[C@@H](CCCNC(=N)N)C(=O)N(C)[C@@H](CCCC)C(=O)N[C@@H](CCCCC)C(=O)N2CCC[C@H]2C(=O)N[C@@H](C(C)(C)C)C(=O)N[C@@H](CO)C(=O)N[C@H](C(=O)N[C@@H](CC(=O)NCCOCCOCC(=O)NCCCCCCCCCCC(=O)O)C(=O)O)CSCC(=O)N[C@@H](Cc2cccc(C)c2)C(=O)N[C@@H](Cc2c[nH]c3ccccc23)C(=O)N[C@@H](CC(=O)O)C1=O [Example 2197] ({CH2CO}-[Phe(3-Me)]WD[NHexGly]Y[Nle]NR[NMeNle][Ahp(2)]P[Tle]SC[βAsp][AEEA][Aun]-OH; thioether N-14) | 
 | CCCCCCN1CC(=O)N[C@@H](Cc2ccc(O)cc2)C(=O)N[C@@H](CCCC)C(=O)N[C@@H](CC(=O)O)C(=O)N[C@@H](CCCN)C(=O)N(C)[C@@H](CCCC)C(=O)N[C@@H](CCCCC)C(=O)N2CCC[C@H]2C(=O)N[C@@H](C(C)C)C(=O)N[C@@H](CC(=O)O)C(=O)N[C@H](C(=O)N[C@@H](CO)C(N)=O)CSCC(=O)N[C@@H](Cc2ccc3ccccc3c2)C(=O)N[C@@H](Cc2ccc(O)cc2)C(=O)N[C@@H](CC(=O)O)C1=O [Ex 1320] ({CH2CO}-[2Nal]YD[NHexGly]Y[Nle]D[Orn][NMeNle][Ahp(2)]PVDCS-NH2; thioether N-14) | IC50 (cell-based binding high-content assay, mVISTA, the 16th table, read-out: HC CBA mVISTA IC50): 21.3 nM
 | CCCCCCN1CC(=O)N[C@@H](Cc2ccc(O)cc2)C(=O)N[C@@H](CC(C)C)C(=O)N[C@@H](CC(N)=O)C(=O)N[C@@H](CCCNC(=N)N)C(=O)N[C@@H](CC(C)C)C(=O)N[C@@H](CCCCC)C(=O)N2CCC[C@H]2C(=O)N[C@@H](C(C)C)C(=O)N[C@@H](C(C)C)C(=O)N[C@H](C(=O)NCCOCCOCC(=O)N[C@@H](CC(=O)O)C(=O)NCCOCCOCC(=O)NCCCCCCCCCCC(=O)O)CSCC(=O)N[C@@H](Cc2ccccc2)C(=O)N[C@@H](Cc2ccc(O)cc2)C(=O)N[C@@H](CC(=O)O)C1=O (stereo in doubt) [compound 2291] | IC50 (cell-based binding high-content assay, read-out: HC CBA miPrISTA IC50): 17.4 nM
50.1 | CCCCCCN1CC(=O)N[C@@H](Cc2ccc(O)cc2)C(=O)N[C@@H](CCCC)C(=O)N[C@@H](CC(N)=O)C(=O)N[C@@H](CCCNC(=N)N)C(=O)N(C)[C@@H](CCCC)C(=O)N[C@@H](CCCCC)C(=O)N2CCCC[C@H]2C(=O)N[C@@H](Cc2ccccc2)C(=O)N[C@@H](CO)C(=O)N[C@H](C(=O)N[C@@H](CC(=O)NCCOCCOCC(=O)NCCCCCCCCCCC(=O)O)C(=O)O)CSCC(=O)N[C@@H](Cc2ccccc2)C(=O)N[C@@H](Cc2c[nH]c3ccccc23)C(=O)N[C@@H](CC(=O)O)C1=O [Example 2185] ({CH2CO}-FWD[NHexGly]Y[Nle]NR[NMeNle][Ahp(2)][Pip]FSC[βAsp][AEEA][Aun]-OH; thioether N-14) | 
 | CCCCCCN1CC(=O)N[C@@H](Cc2ccc(O)cc2)C(=O)N[C@@H](CCCNC(=N)N)C(=O)N[C@@H](CC(N)=O)C(=O)N[C@@H](CCCNC(=N)N)C(=O)N[C@@H](CC(C)C)C(=O)N[C@@H](CCCCC)C(=O)N2CCC[C@H]2C(=O)N[C@@H](C(C)C)C(=O)N[C@@H](Cc2c[nH]c3ccccc23)C(=O)N[C@H](C(=O)NCC(=O)O)CSCC(=O)N[C@@H](Cc2ccccc2)C(=O)N[C@@H](Cc2ccc(O)cc2)C(=O)N[C@@H](CC(=O)O)C1=O [Example 1069] ({CH2CO}-FYD[NHexGly]YRNRL[Ahp(2)]PVWCG-OH; thioether N-14) | IC50 [1]: 48.3 nM
34.9 | CCCCCCN1CC(=O)N[C@@H](Cc2ccc(O)cc2)C(=O)N[C@@H](CC(C)C)C(=O)N[C@@H](CC(=O)O)C(=O)N[C@@H](CCCNC(=N)N)C(=O)N(C)[C@@H](CCCC)C(=O)N[C@@H](CCCCC)C(=O)N2CCC[C@H]2C(=O)N[C@@H](C(C)(C)C)C(=O)N[C@@H](CC(N)=O)C(=O)N[C@H](C(=O)NCCOCCOCC(=O)N[C@@H](CC(=O)NCCOCCOCC(=O)NCCCCCCCCCCC(=O)O)C(=O)O)CSCC(=O)N[C@@H](Cc2ccccc2)C(=O)N[C@@H](Cc2cccc(C)c2)C(=O)N[C@@H](CC(=O)O)C1=O [Example 2212] ({CH2CO}-F[Phe(3-Me)]D[NHexGly]YLDR[NMeNle][Ahp(2)]P[Tle]NC[AEEA][βAsp][AEEA][Aun]-OH; thioether N-14) | 
10.5 | CCCCCCN1CC(=O)N[C@@H](Cc2ccc(O)cc2)C(=O)N[C@@H](CCCCC)C(=O)N[C@@H](CC(N)=O)C(=O)N[C@@H](CCCNC(=N)N)C(=O)N(C)[C@@H](CCCC)C(=O)N[C@@H](CCCCC)C(=O)N2CCC[C@H]2C(=O)N[C@@H](C(C)C)C(=O)N[C@@H](C(C)C)C(=O)N[C@H](C(=O)NCC(=O)O)CSCC(=O)N[C@@H](Cc2ccccc2)C(=O)N[C@@H](Cc2c[nH]c3ccccc23)C(=O)N[C@@H](CC(=O)O)C1=O [Example 1385] ({CH2CO}-FWD[NHexGly]Y[Ahp(2)]NR[NMeNle][Ahp(2)]PVVCG-OH; thioether N-14) | 
 | CCCCCCN1CC(=O)N[C@@H](Cc2ccc(O)cc2)C(=O)N[C@@H](C(C)C)C(=O)NCC(=O)N[C@@H](CCCNC(=N)N)C(=O)N[C@@H](CC(C)C)C(=O)N[C@@H](CCCCC)C(=O)N2CCC[C@H]2C(=O)N[C@@H](C(C)C)C(=O)N[C@@H](CCCNC(=N)N)C(=O)N[C@H](C(=O)NCC(=O)O)CSCC(=O)N[C@@H](Cc2ccc3ccccc3c2)C(=O)N[C@@H](Cc2c[nH]c3ccccc23)C(=O)N[C@@H](CC(=O)O)C1=O [compound 1230] ({CH2CO}-[2Nal]WD[NHexGly]YVGRL[Ahp(2)]PVRCG-OH; thioether N-14) | IC50 (cell-based binding high-content assay, mVISTA, the 15th table, read-out: HC CBA mVISTA IC50): 5.7 nM
 | CCCCCCN1CC(=O)N[C@@H](Cc2ccc(O)cc2)C(=O)N[C@@H](CCCCN)C(=O)N[C@@H](CC(=O)O)C(=O)N[C@@H](CCCN)C(=O)N[C@@H](CC(C)C)C(=O)N[C@@H](CCCCC)C(=O)N2CCC[C@H]2C(=O)N[C@@H](C(C)C)C(=O)N[C@@H](CO)C(=O)N[C@H](C(=O)NCC(=O)O)CSCC(=O)N[C@@H](Cc2ccccc2)C(=O)N[C@@H](Cc2ccc(O)cc2)C(=O)N[C@@H](CC(=O)O)C1=O [Example 1051] ({CH2CO}-FYD[NHexGly]YKD[Orn]L[Ahp(2)]PVSCG-OH; thioether N-14) | IC50 [1]: 11.5 nM

SMILES | IC50 (read-out: HC CBA mVISTA IC50) [nM] | also measured
CCCCCCN1CC(=O)N[C@@H](Cc2ccc(O)cc2)C(=O)N[C@@H](CC(C)C)C(=O)N[C@@H](CC(N)=O)C(=O)N[C@@H](CCCNC(=N)N)C(=O)N(C)[C@@H](CCCC)C(=O)N[C@@H](CCCCC)C(=O)N2CCC[C@H]2C(=O)N[C@@H](C(C)(C)C)C(=O)N[C@@H](CO)C(=O)N[C@H](C(=O)NCC(N)=O)CSCC(=O)N[C@@H](Cc2ccccc2)C(=O)N[C@@H](Cc2cccc(F)c2)C(=O)N[C@@H](CC(=O)O)C1=O [compound 1341] ({CH2CO}-F[Phe(3-F)]D[NHexGly]YLNR[NMeNle][Ahp(2)]P[Tle]SCG-NH2; thioether N-14) | 19.1 | 
